“Also recorded” adds a separate entry of the source.
What was measured:
OVCAR-4 = assay: NCI60 screening; type: cell-based; conditions: Homo sapiens, Ovarian Cancer
NCI-H322M = assay: NCI60 screening; type: cell-based; conditions: Homo sapiens, Non-Small Cell Lung Cancer
HCC1007-BL = assay: IC50 in leukemia cell lines; type: cell-based; conditions: Normal B-Lymphoblast
EKVX = assay: NCI60 screening; type: cell-based; conditions: Homo sapiens, Non-Small Cell Lung Cancer
PC-3 tumor xenografts = assay: PC-3 xenografts in nude mice; type: in vivo; conditions: 10 mg/kg/day
Experimental: PC-3 cells suspended in PBS were subcutaneously injected to the lower flanks of immune-deficient nude mice at a density of 2×10^6 cells/200 ul (PBS). After tumor establishment, 4A formulated in tween80 (5%), DMSO (10%), PEG400 (25%) and PBS (60%) were administered in an intraperitoneal fashion to mice at a daily dose of 10 mg (compound)/kg (mouse). Blank vehicle was used as a control. Tumors and mouse weights were measured and tumor volumes were calculated as Length×width^2/2.

MOLT-4 = assay: IC50 in leukemia cell lines; type: cell-based; conditions: Homo sapiens; Molt-4, T-ALL
A549(ATCC) = assay: NCI60 screening; type: cell-based; conditions: Homo sapiens, Non-Small Cell Lung Cancer
Molt-16 = assay: IC50 in leukemia cell lines; type: cell-based; conditions: Homo sapiens; Molt-16, T-ALL
PC-3 cells [1] = assay: Immunofluorescence imaging of tubulin networks; type: cell-based; conditions: α-tubulin immunofluorescence
Experimental: Tubulin networks were examined by confocal immunofluorescence imaging. Briefly, PC3 cells were placed at a density of 80,000/mL to 24-well plates equipped with round microscope glass cover slides. After culturing at 37° C. for 24 hours, DMSO or compounds were added to the cells and incubated for additional 6 hours. Then the medium was removed and the cells were washed with pbs three times. Primary anti-α-tubulin antibody was added and incubated overnight at 4° C. After additional washing, secondary TRITC-conjugated anti-rabbit antibody was added for 40 min, followed by additional washing and staining with DAPI. Final washing was performed and the cover slides were inverted onto glass slides. Images (40×) were taken using a Nikon confocal microscope with excitation at 557 nm and emission at 576 nm.

PC-3 cells [2] = assay: Proliferation inhibition assay, PC-3; type: cell-based; conditions: Homo sapiens, PC-3, Table 2
Experimental: (§1) Cell Culture. LS174T (colon cancer cells), PC-3 (prostate cancer cells), MCF-7 (beast) and A549 (lung) were cultured in the medium recommended by American Type Culture Collection at 37° C. with 5% CO2 atmosphere in a water jacketed incubator. Ovcar-8 and NCI/ADR-RES are gifts from Dr. Markos Leggas. Alpha-tubulin antibodies, TRITC-conjugated anti-rabbit antibody.
(§2) Proliferation inhibition assay. Cancer cells were seeded into 24-well plates at a density of 20,000 cells per well in 1 mL of culture medium and cultured overnight at 37° C. Compounds and the vehicle control DMSO were added to the cells. After 6 days, medium was removed and 100 μL of trypsin was added. Then the cells resuspended in pbs were counted by Vi-CELL XR 2.03 (Beckman Coulter, Inc. USA). The ratio R of the number of viable cells in the compound treatment group to the number of viable cells in DMSO treatment group was taken as relative growth, and the percentage growth inhibition was calculated as: (1−R)*100. For initial testing, compounds were added to the cells at a final concentration 10 μM. Active compounds at 10 μM would be tested at lower concentrations.

MALME-3M = assay: NCI60 screening; type: cell-based; conditions: Homo sapiens, Melanoma
CCRF-CEM = assay: IC50 in leukemia cell lines; type: cell-based; conditions: Homo sapiens, T-ALL
UACC-257 = assay: NCI60 screening; type: cell-based; conditions: Homo sapiens, Melanoma
Jurkat = assay: IC50 in leukemia cell lines; type: cell-based; conditions: Homo sapiens, T-ALL
SK-MEL-28 = assay: NCI60 screening; type: cell-based; conditions: Homo sapiens, Melanoma
LS174T cells = assay: Proliferation inhibition assay, LS174T; type: cell-based; conditions: Homo sapiens, LS174T, Table 2
Experimental: as §1, §2

NCI-BL2009 = assay: IC50 in leukemia cell lines; type: cell-based; conditions: NCI-BL2009, Normal B-Lymphoblast
DND41 = assay: IC50 in leukemia cell lines; type: cell-based; conditions: DND41, T-ALL
Nalm-16 = assay: IC50 in leukemia cell lines; type: cell-based; conditions: NALM16; Nalm-16, B-ALL

**Q.** What does the source list for `CCn1cc(/C=C2\Oc3cc(OCC#N)ccc3C2=O)c2cc(OC)ccc21` [Aurone 4a, (Z)-2-((2-((1-Ethyl-5-methoxy-1H-indol-3-yl)methylene)-3-oxo-2,3-dihydrobenzofuran-6-yl)oxy)acetonitrile]?
**A.** GI50 (OVCAR-4): 19000 nM; GI50 (NCI-H322M): 1430 nM; IC50 (HCC1007-BL): 1380 nM; GI50 (EKVX): 2730 nM; gross toxicity / body weights of treated mice (PC-3 tumor xenografts): without significant effects on body weights; also recorded: no apparent gross toxicity; also recorded: no general toxicity; in vivo tumor inhibitory effect (PC-3 tumor xenografts; intraperitoneal): inhibited PC-3 tumor xenografts; also recorded: significant, tumor-growth suppression; IC50 (MOLT-4): 241 nM; GI50 (A549(ATCC)): 5100 nM; IC50 (Molt-16): 234 nM; microtubule structures (PC-3 cells [1]): inhibited microtubule structures; inhibition at 0.1 µM (PC-3 cells [2]; 100 nM): 58 ± 11%; inhibition at 0.3 µM (PC-3 cells [2]; 300 nM): 93 ± 2.8%; inhibition at 1 µM (PC-3 cells [2]; 1 μM): 95 ± 2.5%; GI50 (MALME-3M): > 100000 nM; IC50 (CCRF-CEM): 244 nM; GI50 (UACC-257): 67100 nM; IC50 (Jurkat): 273 nM; GI50 (SK-MEL-28): 10200 nM; inhibition at 0.1 µM (LS174T cells; 100 nM): 11 ± 11%; inhibition at 0.3 µM (LS174T cells; 300 nM): 93 ± 14%; inhibition at 1 µM (LS174T cells; 1 μM): 97 ± 0.4%; inhibition at 10 µM (LS174T cells; 10 μM): 96 ± 0.8%; IC50 (NCI-BL2009): 1250 nM; IC50 (DND41): 210 nM; IC50 (Nalm-16): 272 nM

From patent US20200354348A1, “SEMISYNTHETIC AURONES AND METHODS OF USE THEREOF” (University of Kentucky Research Foundation, priority 2018, published 2020)
